Experiments:
in vivo = experiment: in vivo; set-up: species or system mice; settings: mouse
Text: The mice (C57BL/6J, male, 6-8 weeks) were from Charles River Spain (Barcelona). The procedures and animal care were based on institutional standards and complied with national and international laws and policies (Directive 86/609, OJ L 358. 1 of the Council of the European Community, of 12 Dec. 1987) and the “Guide for the Care and Use of Laboratory Animals” of the National Institutes of Health (NIH, USA) (NIH Publication No. 85-23, 1985). All the animals were fed according to concentrated laboratory diets (Letica, Barcelona, Spain) allowing them free access to food and submitting them to a cycle of 12 hours of light/12 hours of darkness with ambient temperature of 22° C. The experiments were begun at 10.00 a.m. to minimize the effects of diurnal variations.
For the pharmacokinetic studies and for the daily treatment, the mice were administered i.v. (via the jugular vein, where a permanent catheter had previously been fixed by surgical methods; i.v. administration was carried out slowly for 1 minute), and orally (via stomach tube), 20 mg/kg of t-PTER (dissolved in ethanol 0.5 ml/kg of animal weight) or QUER (dissolved in dimethylsulfoxide:saline, 1:0.5 0.15 ml/kg of weight). In general, the compositions based on a combination of PTER and QUER can contain, as excipients, those stated previously or any others that are pharmaceutically acceptable. The presentation of said compositions can be, non-limitatively, in the form of solids such as tablets, capsules, pellets, pills, etc. and liquid presentations such as drops, syrups, injectables, etc. Moreover, the active principles (PTER and QUER) of the composition can be in their uncombined forms or in the form of pharmaceutically acceptable salts, including esters. The t-PTER was synthesized in our laboratory following standardized reactions of Wittig and Heck (www.orgsyn.org), whereas the QUER was obtained from Sigma Chemical Co. (San Luis, Mo., USA). The ^3H-t-PTER (2.2 Ci/mmol), labeled in the ortho and para positions of the benzene rings, was prepared in our laboratory according to a method similar to that used for the deuteration of phenols (18). ^14C-QUER (50 mCi/mmol), labeled in position 4 of the carbon ring, was obtained from the NCI Radiochemical Carcinogen Repository of Chemsyn Laboratories (Kansas City, Mo., USA). The radioactivity was measured using a Varisette 2700 TR analyzer from Packard. Blood was collected by means of the catheter in 1-ml syringes that contained heparin sodium (0.05 ml of a 5% solution in […]). The plasma and the erythrocytes were separated as described previously (19).
LC-MS/MS was carried out using a Quattro Micro triple quadrupole mass spectrometer (Micromass, Manchester, UK) equipped with an LC-10Advp pump, an SLC-10Avp control system and an SIL-10Advp autoinjector from Shimadzu. The samples were analyzed by reverse-phase high-performance liquid chromatography using a Prodigy ODS column (100×2 mm) from Phenomenex (Torrance, Calif., USA), with a particle size of 3 μm. In all cases, 40 μl was injected into the column. Column temperature was maintained at 25° C. The following gradient system was used, pumped through the column at 0.2 ml/minute (min/% A/% B/% C) (A, methanol; B, 10% acetonitrile and 90% ammonium formate 10 mM pH 3.75; C, ammonium formate 10 mM pH 3.75): 0/5/5/90, 10/5/5/90, 20/5/90/5, 30/100/0/0, 40/5/5/90. The negative ion tandem mass spectra obtained by electrospray were recorded with the electrospray capillary fixed at […] and at a temperature of the source block of 120° C. Nitrogen was used as nebulizer gas and drying gas, with flows of 300 and 30 l/h, respectively. Argon at 1.5×10^−3 mbar was used as the collision gas for collision-induced dissociation. A test was carried out based on LC-MS/MS with tracking of multiple reactions using the transitions m/z 255-240 for PTER and […] for QUER, which in both cases represent favorable fragmentation routes for these deprotonated molecules. […]

B16M-F10 cells = experiment: Levels of free polyphenols in the incubation medium of B16M-F10 cultures; assay type: in vitro ADME; settings: throughout the culture time
B16M-F10/Tet-Bcl-2 = experiment: Survival of mice carrying B16M-F10/Tet-Bcl-2 metastases; assay type: in vivo; settings: 20 mg/kg i.v. daily, none 12 ± 1
Protocol: Hepatic metastases were induced by i.v. inoculations (portal vein), in anesthetized mice (Nembutal, 50 mg/kg i.p.), of 4×10^5 viable B16M-F10 cells suspended in 0.2 ml of DMEM. The mice were sacrificed by cervical dislocation 10 days after inoculation. The livers were fixed by immersion for 24 hours at 22° C. in 10% formaldehyde in PBS (pH 7.4), and were subsequently embedded in paraffin. The density of metastases (average number of foci/100 mm^3 of liver detected in fifteen sections of 10×10 mm^2 per liver) and the volume of metastases (average percentage of liver volume occupied by metastases) were determined as described previously (22).
This methodology makes it possible for the effect of PTER and QUER to be studied in vivo. […] The number of adhering cells shown in the table was calculated at 60 minutes postinjection (no significant differences were found when the measurements were effected at 30, 120, 180, 240 or 360 minutes postinjection, data not shown). The number of intact cells was calculated at 6 hours postinjection. […] The growth of metastases in the liver was evaluated as stated in the corresponding section of the description, and in this case the mice were treated daily (×10 days) with t-PTER and/or QUER (20 mg/kg of body weight) administered i.v. (the data are mean values±SD corresponding to 25 mice per group). […]

For `COc1cc(/C=C/c2ccc(O)cc2)cc(OC)c1` [PTER, pterostilbene], the “PTER measured in plasma or blood in the trans form” value (in vivo; male, C57BL/6J) was “At least 99%”, the half-life (in vivo; male, C57BL/6J, iv, 20 mg/kg) was about 77.9 min and the “time in which plasma concentration decreases to ~1 μM” value (in vivo; male, C57BL/6J, iv, 20 mg/kg) was 480 min. The “levels in whole blood compared with plasma” value (in vivo) was “not significantly different”, the “total levels of free polyphenols in the incubation medium (metabolism by cancer cells)” value (B16M-F10 cells) was “remained unchanged” and the “Survival of the carrier” value (B16M-F10/Tet-Bcl-2) was 12 ± 2 days.
With `O=c1c(O)c(-c2ccc(O)c(O)c2)oc2cc(O)cc(O)c12` [QUER, quercetin] the half-life (in vivo; male, C57BL/6J, iv, 20 mg/kg) was about 20.1 min, the “time in which plasma concentration decreases to ~1 μM” value (in vivo; male, C57BL/6J, iv, 20 mg/kg) was 120 min and the “levels in whole blood compared with plasma” value (in vivo) was “not significantly different”. For the same compound, the “total levels of free polyphenols in the incubation medium (metabolism by cancer cells)” value (B16M-F10 cells) was “remained unchanged” and the “Survival of the carrier” value (B16M-F10/Tet-Bcl-2) was 13 ± 2 days.
`Oc1ccc(C=Cc2cc(O)cc(O)c2)cc1` [RESV, resveratrol, reference compound] gave a half-life (in vivo) of about 10.2 min.
